Entries after “also recorded” stand apart in the source; their conditions may differ.
What was measured:
[1] = tested on: mitochondrial cytotoxicity; settings: cited from earlier work
[2] = tested on: CXCR4 mutant-expressing cells; settings: cited from earlier work
CXCR7 = tested on: CXCR7; set-up: method as in PMID 25921529; settings: cited from earlier work
WM cells = experiment: Transwell migration of WM cells, general statement; type: cell-based; settings: 10 nM CXCL12, 2 h, 37 °C; non-specific migration 3,4%; CellTiter-Glo
Method: 10 nM CXCL12 was supplemented to the lower chamber. After 2 h incubation at 37 °C, 5% CO2, cells that had migrated to the lower compartment were analyzed using the CellTiter-Glo Luminescent Cell Viability Assay (Promega, Madison, WI, USA) according to the manufacturer’s instructions. Percentage of specific migration was calculated using the following formula: % migration = ((specific migration-unspecific migration)/total cells) × 100. The average of absolute percentage of non-specific migration was very low in some experiments with 3,4% compared to an average of 81% CXCL12 induced migration.

[3] = tested on: ERK1 (Tyr204)/ERK2 (Tyr187) phosphorylation, CXCR4 transduced BCWM.1 cells; experiment: ERK phosphorylation by flow cytometry, CXCR4-transduced BCWM.1 cells; type: cell-based; settings: wild-type or mutated CXCR4 or empty vector control; Figure S5B
Method: Cells (100,000) were seeded in 100 µL starvation medium (RPMI, 1% FCS) and starved for 2 h. 5 µL compound in PBS was added and cells were further incubated for 15 min. Afterwards, 5 µL CXCL12 (100 ng/mL final concentration on cells) was added for 2 min before the reaction was stopped by adding PFA and shifting to 4 °C. After 15 min, medium was removed by centrifugation and cells permeabilized by adding ice cold MetOH for 15 min. Cells were then washed and the first antibody was added (phospho-p44/42 MAPK (Erk1) (Tyr204)/(Erk2) (Tyr187) (D1H6G) mouse mAb (Cell Signaling, Danvers, Massachusetts, USA, #5726) and phospho-Akt (Ser473) (193H12) rabbit mAb (Cell Signaling, #4058)) for 2 h and stained with adequate secondary antibody afterwards. Cells were analyzed by flow cytometry with FACS Cytoflex (Beckman Coulter, Brea, CA, USA). For time-kinetic experiments, fold-stimulation was determined by MFI (stimulated)/MFI (unstimulated) for each time point. For inhibition experiments, MFI from unstimulated cells was subtracted from each point and signal of stimulated cells without inhibitor normalized to 100%.

Molecule | Mitochondrial cytotoxicity [1] | Abrogation of CXCL12 rescue from ibrutinib-induced apoptosis [2] | Interaction with CXCR7 (CXCR7) | CXCL12 induced migration, average (WM cells) [%] | CXCL12 effect on phosphorylation / MAPK signaling [3]
c1cc(CN2CCCNCCNCCCNCC2)ccc1CN1CCCNCCNCCCNCC1 [AMD3100] | do not exert mitochondrial cytotoxicity, in contrast to AMD3100 | the effect could be abrogated by adding plerixafor | acts as an allosteric agonist of this receptor | – | –
CXCL12: chemokine ligand CXCL12 | – | – | – | 81 | increased upon CXCL12 stimulation; also recorded: increases MAPK signaling in cells expressing CXCR4 wildtype constitutively to the same extent as in CXCR4-mutant cells
